Where two headings read alike, the source gives them in different places.
How the values were obtained:
[1] = target: T1, PI3K alfa (Homo sapiens, UniProt P42336); experiment: PI3K alpha kinase assay (Kinase-Glo luminescence); format: biochemical
T1 construct: His tag (C); made in house; host or cells: baculovirus BV1075; Tn5 (Trichoplusia ni) or TiniPro insect cells
In short: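 IC50 values come from a four-parameter logistic fit of percent inhibition at eight concentrations, typically 10 to 0.003 μM. Recombinant PI3Kα at 10 nM turned over 1 μM ATP with 10 μg/mL PI for 60 min at room temperature, and residual ATP was measured by Kinase-Glo.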

[2] = target: T2, PI3K gamma (Homo sapiens, UniProt P48736); experiment: PI3K gamma kinase assay (Kinase-Glo luminescence); format: biochemical; conditions: read-out: PI3Kgamma/IC50
T2 construct: His tag (C); made in house; host or cells: construct from Roger Williams lab (pVL1393); baculovirus BV950; Tn5 (Trichoplusia ni) or TiniPro insect cells
Experimental: In a more preferred assay, the kinase reaction is performed in a final volume of 10 μL per well of a low volume non binding CORNING, 384 well black plate (Cat. No. #3676). The final concentrations of ATP and phosphatidyl inositol (PI) in the assay are 1 μM and 10 μg/mL respectively. The reaction is started by the addition of ATP.
The components of the assay are added per well as follows:
50 nL test compounds in 90% DMSO per well, in columns 1-20, 8 concentrations (⅓ and 1/3.33 serial dilution step) in single. • Low control: […] of 90% DMSO in half the wells of columns 23-24 (0.45% in final). • High control: 50 nL of reference compound (e.g. compound of Example 7 in WO 2006/122806) in the other half of columns 23-24 (2.5 μM in final). • Standard: 50 nL of reference compound as just mentioned diluted as the test compounds in columns 21-22 • 20 mL ‘buffer’ are prepared per assay: • 200 μL of 1M TRIS HCl pH7.5 (10 mM in final) • 60 μL of 1M MgCl2 (3 mM in final) • 500 μL of 2M NaCl (50 mM in final) • 100 μL of 10% CHAPS (0.05% in final) • 200 μL of 100 mM DTT (1 mM in final) • 18.94 mL of nanopure water • 10 mL ‘PI’ are prepared per assay: • 200 μL of 1 mg/ml L-alpha-Phosphatidylinositol (Liver Bovine, Avanti Polar Lipids Cat. No. 840042C MW=909.12) prepared in 3% OctylGlucoside (10 μg/ml in final) • 9.8 mL of ‘buffer’ • 10 mL ‘ATP’ are prepared per assay: • 6.7 μL of 3 mM stock of ATP giving a final concentration of 1 μM per well • 10 mL of ‘buffer’ • 2.5 mL of each PI3K construct are prepared per assay in ‘PI’ with the following final concentration: • 10 nM PI3K alfa EMV B1075 • 25 nM beta EMV BV949 • 10 nM delta EMV BV1060 • 150 nM gamma EMV BV950 • 5 μL of ‘PI/PI3K’ are added per well. • 5 μl ‘ATP’ are added per well to start the reaction. • The plates are then incubated at room temperature for 60 minutes (alfa, beta, delta) or 120 minutes (gamma). • The reaction is terminated by the addition of 10 μL Kinase-Glo (Promega Cat. No. #6714). • The assay plates are read after 10 minutes in Synergy 2 reader (BioTek, Vermont USA) with an integration time of 100 milliseconds and sensitivity set to 191. • Output: The High control is around 60′000 counts and the Low control is 30′000 or lower • This luminescence assay gives a useful Z′ ratio between 0.4 and 0.7
PI3K gamma is purified in two chromatographic steps: immobilized metal affinity chromatography (IMAC) on a Ni Sepharose resin (GE Healthcare) and gel filtration (GFC) utilizing a Superdex 200 26/60 column (GE Healthcare). All buffers are chilled to 4° C. and lysis is performed chilled on ice. Column fractionation is performed rapidly at room temperature. Typically frozen insect cells are lysed in a hypertonic lysis buffer and applied to a prepared IMAC column. The resin is washed with 3-5 column volumes of lysis buffer, followed by 3-5 column volumes wash buffer containing 45 mM imidazole, and the target protein is then eluted with a buffer containing 250 mM imidazole. Fractions are analyzed by Coomassie stained SDS-PAGE gels, and fractions containing target protein are pooled and applied to a prepared GFC column. Fractions from the GFC column are analyzed by Coomassie stained SDS-PAGE gels, and fractions containing target protein are pooled. The final pool is dialyzed into a storage buffer containing 50% glycerol and stored at −20° C. The final pool is assayed for activity in the phosphoinostitol kinase assay.
IC50 is determined by a four parameter curve fitting routine that comes along with “excel fit”. A 4 Parameter logistic equation is used to calculate IC50 values (IDBS XLfit) of the percentage inhibition of each compound at 8 concentrations (usually 10, 3.0, 1.0, 0.3, 0.1, 0.030, 0.010 and 0.003 μM). Alternatively, IC50 values are calculated using idbsXLfit model 204, which is a 4 parameter logistic model.

T1 sequence (P42336 with tags, fused parts or gaps limits assumed): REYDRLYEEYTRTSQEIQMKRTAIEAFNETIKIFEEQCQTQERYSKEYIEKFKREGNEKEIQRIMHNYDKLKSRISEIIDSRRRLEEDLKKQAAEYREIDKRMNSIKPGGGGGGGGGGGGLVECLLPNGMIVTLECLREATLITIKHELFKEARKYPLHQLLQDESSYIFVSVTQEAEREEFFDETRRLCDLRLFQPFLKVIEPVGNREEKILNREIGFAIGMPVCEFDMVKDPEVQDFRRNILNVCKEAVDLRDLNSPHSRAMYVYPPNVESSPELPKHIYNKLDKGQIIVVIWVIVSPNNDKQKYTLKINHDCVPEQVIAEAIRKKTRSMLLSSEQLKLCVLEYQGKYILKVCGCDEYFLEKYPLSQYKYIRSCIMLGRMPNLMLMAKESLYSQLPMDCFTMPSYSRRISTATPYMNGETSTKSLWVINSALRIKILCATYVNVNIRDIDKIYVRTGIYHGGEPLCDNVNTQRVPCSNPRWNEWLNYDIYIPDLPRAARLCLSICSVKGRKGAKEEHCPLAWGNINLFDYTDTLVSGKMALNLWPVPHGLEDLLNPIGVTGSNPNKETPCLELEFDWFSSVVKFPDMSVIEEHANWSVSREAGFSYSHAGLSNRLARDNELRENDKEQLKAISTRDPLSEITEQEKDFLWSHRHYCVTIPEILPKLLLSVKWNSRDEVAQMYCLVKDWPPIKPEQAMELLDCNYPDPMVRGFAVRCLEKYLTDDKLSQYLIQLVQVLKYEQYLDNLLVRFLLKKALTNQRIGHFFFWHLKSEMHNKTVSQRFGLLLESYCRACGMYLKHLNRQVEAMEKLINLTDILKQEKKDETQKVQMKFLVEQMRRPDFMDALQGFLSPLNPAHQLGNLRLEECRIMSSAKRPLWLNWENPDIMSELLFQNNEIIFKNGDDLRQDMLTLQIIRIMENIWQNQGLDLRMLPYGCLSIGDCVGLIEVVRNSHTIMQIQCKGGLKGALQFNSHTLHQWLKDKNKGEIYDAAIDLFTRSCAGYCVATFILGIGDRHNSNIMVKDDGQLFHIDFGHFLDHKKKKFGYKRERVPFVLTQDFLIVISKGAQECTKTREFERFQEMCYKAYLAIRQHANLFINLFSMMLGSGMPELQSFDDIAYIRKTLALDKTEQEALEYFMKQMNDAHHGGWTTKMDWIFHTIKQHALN
T2 sequence (P48736 144-1102 limits assumed): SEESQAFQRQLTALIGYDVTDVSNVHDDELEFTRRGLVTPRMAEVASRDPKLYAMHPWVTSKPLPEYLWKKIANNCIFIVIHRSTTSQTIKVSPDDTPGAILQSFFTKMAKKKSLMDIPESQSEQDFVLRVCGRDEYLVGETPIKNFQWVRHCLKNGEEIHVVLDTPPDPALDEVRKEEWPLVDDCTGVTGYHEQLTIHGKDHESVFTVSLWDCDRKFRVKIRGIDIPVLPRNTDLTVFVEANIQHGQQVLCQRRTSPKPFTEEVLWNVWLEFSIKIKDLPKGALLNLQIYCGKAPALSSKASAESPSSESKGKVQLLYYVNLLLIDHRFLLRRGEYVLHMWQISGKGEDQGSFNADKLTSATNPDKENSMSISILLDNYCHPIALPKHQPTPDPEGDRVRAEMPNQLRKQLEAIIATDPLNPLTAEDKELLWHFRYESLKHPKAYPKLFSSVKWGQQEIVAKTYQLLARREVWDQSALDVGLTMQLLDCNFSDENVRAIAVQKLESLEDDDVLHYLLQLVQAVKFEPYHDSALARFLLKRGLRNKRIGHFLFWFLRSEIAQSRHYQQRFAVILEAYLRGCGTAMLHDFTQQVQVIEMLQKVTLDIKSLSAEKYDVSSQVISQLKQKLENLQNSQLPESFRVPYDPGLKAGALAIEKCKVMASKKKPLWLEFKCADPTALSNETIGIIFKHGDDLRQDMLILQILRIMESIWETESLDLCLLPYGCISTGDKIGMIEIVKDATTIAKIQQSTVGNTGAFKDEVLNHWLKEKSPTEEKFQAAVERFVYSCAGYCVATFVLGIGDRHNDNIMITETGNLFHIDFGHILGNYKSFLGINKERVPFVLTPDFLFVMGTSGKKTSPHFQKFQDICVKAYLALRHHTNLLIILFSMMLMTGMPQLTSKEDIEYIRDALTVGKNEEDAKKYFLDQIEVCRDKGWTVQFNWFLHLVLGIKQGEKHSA

Structure (SMILES) | IC50 ([1]; read-out: PI3Kalfa/IC50) [nM] | IC50 [2] [nM] | IC50 ([1]; read-out: EPK_PI3Kalfa/IC50) [nM]
CNc1ncc(-c2ccc3ncc4c(c3c2)n(-c2cccnc2C)c(=O)n4C)cn1 [Example 2.2, 3-Methyl-8-(2-methylamino-pyrimidin-5-yl)-1-(2-methyl-pyridin-3-yl)-1,3-dihydro-imidazo[4,5-c]quinolin-2-one] | 26 | 331 | 
COc1ccc(-c2ccc3ncc4c(c3c2)n(-c2cccnc2)c(=O)n4C)cn1 [Example 5.4, 8-(6-Methoxy-pyridin-3-yl)-3-methyl-1-pyridin-3-yl-1,3-dihydro-imidazo[4,5-c]quinolin-2-one] | 19 | 377 | 
COc1ccc(-c2ccc3ncc4c(c3c2)n(-c2ncccc2C)c(=O)n4C)cn1 [Example 3.13, 8-(6-Methoxy-pyridin-3-yl)-3-methyl-1-(3-methyl-pyridin-2-yl)-1,3-dihydro-imidazo[4,5-c]quinolin-2-one] | 90 | 517 | 
COc1ccc(-c2ccc3ncc4c(c3c2)n(-c2cccnc2OC)c(=O)n4C)cn1 [Example 1.1, 1-(2-Methoxy-pyridin-3-yl)-8-(6-methoxy-pyridin-3-yl)-3-methyl-1,3-dihydro-imidazo[4,5-c]quinolin-2-one] | 23 | 237 | 
COc1ncccc1-n1c(=O)n(C)c2cnc3ccc(-c4cnc(N)c(C(F)(F)F)c4)cc3c21 [Example 1.3, 8-(6-Amino-5-trifluoromethyl-pyridin-3-yl)-1-(2-methoxy-pyridin-3-yl)-3-methyl-1,3-dihydro-imidazo[4,5-c]quinolin-2-one] | 10 | 131 | 
CCOc1ccc(-c2ccc3ncc4c(c3c2)n(-c2cccnc2C)c(=O)n4C)cn1 [Example 2.1, 8-(6-Ethoxy-pyridin-3-yl)-3-methyl-1-(2-methyl-pyridin-3-yl)-1,3-dihydro-imidazo[4,5-c]quinolin-2-one] | 56 | 587 | 
COc1ccc(-c2ccc3ncc4c(c3c2)n(-c2cccnc2)c(=O)n4C)cc1OC [Example 5.2, 8-(3,4-Dimethoxy-phenyl)-3-methyl-1-pyridin-3-yl-1,3-dihydro-imidazo[4,5-c]quinolin-2-one] | 29 | 365 | 
CNc1ccc(-c2ccc3ncc4c(c3c2)n(-c2cccnc2OC)c(=O)n4C)cn1 [Example 1.4, 1-(2-Methoxy-pyridin-3-yl)-3-methyl-8-(6-methylamino-pyridin-3-yl)-1,3-dihydro-imidazo[4,5-c]quinolin-2-one] | 48 | 227 | 
Cc1cccnc1-n1c(=O)n(C)c2cnc3ccc(-c4cnc5ccccc5c4)cc3c21 [Example 3.8, 3-Methyl-1-(3-methyl-pyridin-2-yl)-8-quinolin-3-yl-1,3-dihydro-imidazo[4,5-c]quinolin-2-one] | 70 | 404 | 
CNc1ncc(-c2ccc3ncc4c(c3c2)n(-c2ccc(C)nc2C)c(=O)n4C)cn1 [Example 14.4, 1-(2,6-Dimethyl-pyridin-3-yl)-3-methyl-8-(2-methylamino-pyrimidin-5-yl)-1,3-dihydro-imidazo[4,5-c]quinolin-2-one] |  |  | 30
COc1ccc(-n2c(=O)n(C)c3cnc4ccc(-c5cnc(N(C)C)nc5)cc4c32)c(Cl)n1 [Example 18.3, 1-(2-Chloro-6-methoxy-pyridin-3-yl)-8-(2-dimethylamino-pyrimidin-5-yl)-3-methyl-1,3-dihydro-imidazo[4,5-c]quinolin-2-one] |  |  | 5
CNc1ncc(-c2ccc3ncc4c(c3c2)n(-c2ccc(N(C)C)nc2C)c(=O)n4C)cn1 [Example 19.1, 1-(6-Dimethylamino-2-methyl-pyridin-3-yl)-3-methyl-8-(2-methylamino-pyrimidin-5-yl)-1,3-dihydro-imidazo[4,5-c]quinolin-2-one] |  |  | 11
CCOc1cc(-c2ccc3ncc4c(c3c2)n(-c2cccnc2C)c(=O)n4C)cnc1C [Example 2.22, 8-(5-Ethoxy-6-methyl-pyridin-3-yl)-3-methyl-1-(2-methyl-pyridin-3-yl)-1,3-dihydro-imidazo[4,5-c]quinolin-2-one] |  |  | 81
Cc1nc(C(C)(C)O)ccc1-n1c(=O)n(C)c2cnc3ccc(-c4cncc(OC(C)C)c4)cc3c21 [Example 31.9, 1-[6-(1-Hydroxy-1-methyl-ethyl)-2-methyl-pyridin-3-yl]-8-(5-isopropoxy-pyridin-3-yl)-3-methyl-1,3-dihydro-imidazo[4,5-c]quinolin-2-one] |  |  | 51
CNc1ncc(-c2ccc3ncc4c(c3c2)n(-c2ccc(NC(=O)COC)nc2C)c(=O)n4C)cn1 [Example 20.3, 2-Methoxy-N-{6-methyl-5-[3-methyl-8-(2-methylamino-pyrimidin-5-yl)-2-oxo-2,3-dihydro-imidazo[4,5-c]quinolin-1-yl]-pyridin-2-yl}-acetamide] |  |  | 123
Cc1cc(F)ncc1-n1c(=O)n(C)c2cnc3ccc(-c4cnc5c(ccn5C)c4)cc3c21 [Example 16.5, 1-(6-Fluoro-4-methyl-pyridin-3-yl)-3-methyl-8-(1-methyl-1H-pyrrolo[2,3-b]pyridin-5-yl)-1,3-dihydro-imidazo[4,5-c]quinolin-2-one] |  |  | 27
CCN(C)c1ccc(-n2c(=O)n(C)c3cnc4ccc(-c5ccc(NC)nc5)cc4c32)c(C)n1 [Example 12.1, 1-[6-(Ethyl-methyl-amino)-2-methyl-pyridin-3-yl]-3-methyl-8-(6-methylamino-pyridin-3-yl)-1,3-dihydro-imidazo[4,5-c]quinolin-2-one] |  |  | 36
COc1ccc(-n2c(=O)n(C)c3cnc4ccc(-c5ccc6nccn6c5)cc4c32)c(OC)n1 [Example 8.10, 1-(2,6-Dimethoxy-pyridin-3-yl)-8-imidazo[1,2-a]pyridin-6-yl-3-methyl-1,3-dihydro-imidazo[4,5-c]quinolin-2-one] |  |  | 80
Cc1ncccc1-n1c(=O)n(C)c2cnc3ccc(-c4cnc5c(ccn5C)c4)cc3c21 [Example 2.14, 3-Methyl-1-(2-methyl-pyridin-3-yl)-8-(1-methyl-1H-pyrrolo[2,3-b]pyridin-5-yl)-1,3-dihydro-imidazo[4,5-c]quinolin-2-one] | 34 |  | 
CCNc1cc(-c2ccc3ncc4c(c3c2)n(-c2ccc(N(C)CC)nc2C)c(=O)n4C)cnc1C [Example 12.2, 8-(5-Ethylamino-6-methyl-pyridin-3-yl)-1-[6-(ethyl-methyl-amino)-2-methyl-pyridin-3-yl]-3-methyl-1,3-dihydro-imidazo[4,5-c]quinolin-2-one] |  |  | 15
Cc1ccc(-n2c(=O)n(C)c3cnc4ccc(-c5cnc6c(ccn6C)c5)cc4c32)c(C)n1 [Example 14.7, 1-(2,6-Dimethyl-pyridin-3-yl)-3-methyl-8-(1-methyl-1H-pyrrolo[2,3-b]pyridin-5-yl)-1,3-dihydro-imidazo[4,5-c]quinolin-2-one] |  |  | 16

Reference: patent publication US20100311714A1, “1H-IMIDAZO[4,5-c]QUINOLINONE COMPOUNDS” (priority 2009, published 2010)
